Measured values published in patent US6310177A, “Compounds and methods for modulating tissue permeability” (Adherex Technologies, Inc., priority 2000, dated 2001).
Where a SMILES comes first, the peptide text is derived from it. Bridges are numbered along the chain shown (N, C = ends).

Key:
[1] = system: endothelial cell permeability in vivo; assay: Miles assay for vascular permeability; details: rat, 100 μl subdermal injection of 100 μg/ml peptide in PBS, Evans blue i.v. 15 min later; for dye extracted from excised injection sites (optical density of dimethylformamide extracts at 620 nm): 24 h extraction, FIG. 6 and FIG. 8; for accumulation of Evans blue at the injection sites (visual): read 15 min after dye, FIG. 5
Protocol: The ability of an agent to modulate cell adhesion may generally be evaluated in vivo by assessing the effect on vascular permeability utilizing the Miles assay (McClure et al., J. Pharmacological& Toxicological Methods 32:49-52, 1994). Briefly, a candidate modulating agent may be dissolved in phosphate buffered saline (PBS) at a concentration of 100 μg/ml. Adult rats may be given 100 μl subdermal injections of each peptide solution into their shaved backs, followed 15 minutes later by a single 250 μl injection of 1% Evans blue dissolved in PBS into their tail veins. The subdermal injection sites may be visually monitored for the appearance of blue dye. Once the dye appears (about 15 minutes after injection), each subdermal injection site may be excised, weighed, and placed in 1 ml dimethylformamide for 24 hours to extract the dye. The optical density of the dye extracts may then be determined at 620 nm. In general, the injection of 0.1 ml of modulating agent (at a concentration of 0.1 mg/ml) into the backs of rats causes an increase of dye accumulation at the injection sites of at least 50%, as compared to dye accumulation at sites into which PBS has been injected.
This Example illustrates a vasopermeability assay for evaluating the effects of occludin-modulating agents on endothelial cell permeability in vivo.
The ability of cyclic and linear peptides to increase vascular permeability was assessed utilizing the Miles assay (McClure et al., J. Pharmacological& Toxicological Meth. 32:49-521994). The peptides were dissolved in phosphate buffered saline (PBS) at a concentration of 100 μg/ml. Adult rats were given 100 μl subdermal injections of each peptide solution into their shaved backs, followed 15 minutes later by a single 250 μl injection of 1% Evans blue dissolved in PBS into their tail veins. The subdermal injection sites were visually monitored for the appearance of blue dye. Once the dye appeared (15 minutes after injection), each subdermal injection site was excised, weighed, and placed in 1 ml dimethylformamide for 24 hours to extract the dye. The optical density of the dye extracts was determined at 620 nm. The effects of injecting either phosphate buffered saline, phosphate buffered saline containing acetyl-QYLYHYCVVD-NH2 (SEQ ID NO:2) H-QYLYHYCVVD-NH2 (SEQ ID NO:2), or H-QYLYHYCVVD-OH (SEQ ID NO:2) into sites along the shaved back of a rat on the accumulation of Evans blue at the injection sites is shown in FIG. 5.

[2] = system: Human aortic endothelial cells (HAEC); assay: Endothelial cell adhesion assay with occludin and VE-cadherin immunolocalization; format: cell-based; details: 1 hour
Description: The effect of a modulating agent on endothelial cell adhesion may generally be evaluated using immunolocalization techniques. Human aortic endothelial cells (HAEC) may be cultured on fibronectin-coated coverslips (fibronectinmay be obtained from Sigma, St. Louis, Mo.) according to the procedures of Jaffe et al., J. Clin. Invest. 52:2745-2756, 1973. Briefly, human endothelial cells may be maintained in EGM (endothelial cell growth medium; Clonetics, San Diego, Calif.) and used for experiments at passage 4. Confluent cultures of HAEC may be exposed to either a candidate modulating agent (final concentration 100 μg/ml EGM), or EGM alone for 1 hour. The cells are then be fixed for 30 minutes at 4° C. in 95% ethanol, followed by fixation in acetone for 1 minute at 4° C. (Furuse et al., J. Cell Biol. 123:1777-1788, 1993). After fixation, the cells may be probed with either mouse anti-VE-cadherin antibodies (Hemeris, Sassenage, France; diluted 1:250 in 0.1% dried skim milk powder dissolved in PBS), or rabbit anti-occludin antibodies (Zymed, South San Francisco, Calif.; diluted 1:300 in 0.1% dried skim milk powder dissolved in PBS) for 1 hour at 37° C. The cells may then be washed with 0.1% dried skim milk powder dissolved in PBS (three washes, 5 minutes/wash), and probed with secondary antibodies (donkey anti-mouse Cy3, or donkey anti-rabbit Cy5 diluted 1:250 in 0.1% dried skim milk powder dissolved in PBS; Jackson Immunoresearch Laboratories Inc., Westgrove, Pa.) for 1 hour at 37° C. The cells may then be washed again with in 0.1% dried skim milk powder dissolved in PBS and mounted in a solution composed of 50% glycerol and 50% PBS to which phenylenediamine (Sigma, St. Louis, Mo.) has been added to a final concentration of 1 mg/ml. The sample may then be analyzed using a Bio-Rad MRC 1000 confocal microscope with Laser Sharp software version 2.1T (Bio-Rad, Hercules, Calif.). In general, 0.1 mg/ml of modulating agent results in the appearance of intercellular gaps within the monolayer cultures and a decrease of at least 50% in the surface expression of occludin and VE-cadherin, as compared to monolayer cultures that were not exposed to the modulating agent.
This Example illustrates an endothelial cell adhesion assay for evaluating the effects of occludin-modulating agents on endothelial cell adhesion.
Human aortic endothelial cells (HAEC) were cultured on fibronectin (Sigma, St. Louis, Mo.) according to the procedures of Jaffe et al., J. Clin. Invest. 52:2745-2756, 1973. Cells were maintained in EGM (endothelial cell growth medium; Clonetics, San Diego, Calif.) and used for experiments at passage 4.
HAEC were cultured on fibronectin-coated coverslips. Confluent cultures of HAEC were exposed to linear peptides (final concentration 100 μg/ml EGM), or EGM alone for 1 hour. […]

[3] = HAEC, 100 μg/ml peptide, immunofluorescence, vs untreated cells

Compound	dye extracted from excised injection sites (optical density of dimethylformamide extracts at 620 nm) [1]	accumulation of Evans blue at the injection sites (visual) [1]	surface expression of VE-cadherin [2, 3]	surface expression of occludin [2, 3]	endothelial cell adhesion (retraction of cells, gaps between cells) ([2]; confluent HAEC monolayers, 100 μg/ml peptide in EGM, vs untreated cells, FIG. 4)	formation of cobblestone-like monolayers ([2]; confluent HAEC, 100 μg/ml peptide, FIG. 4B)
CC(C)C[C@@H]1NC(=O)[C@@H](N)CSSC[C@@H](C(=O)O)NC(=O)[C@H](Cc2ccc(O)cc2)NC(=O)[C@H](Cc2c[nH]cn2)NC(=O)[C@H](Cc2ccc(O)cc2)NC1=O [H-CLYHYC-OH] (H-CLYHYC-OH; disulfide 1-6)	more dye was extracted	–	–	–	–	–
CC(=O)N[C@H]1CSSC[C@@H](C(N)=O)NC(=O)[C@H](Cc2ccc(O)cc2)NC(=O)[C@H](Cc2c[nH]cn2)NC(=O)[C@H](Cc2ccc(O)cc2)NC(=O)[C@H](CC(C)C)NC1=O [acetyl-CLYHYC-NH2] (Ac-CLYHYC-NH2; disulfide 1-6)	more dye was extracted from the sites injected with H-CLYHYC-OH	–	–	–	–	–
Ac-QYLYHYCVVD-NH2 [acetyl-QYLYHYCVVD-NH2]	more dye was extracted from the sites injected with H-QYLYHYCVVD-OH	more blue dye has accumulated at the sites where the peptide H-QYLYHYCVVD-OH	–	–	–	–
H-QYLYHYCVVD-NH2 [H-QYLYHYCVVD-NH2]	more dye was extracted from the sites injected with H-QYLYHYCVVD-OH	more blue dye has accumulated at the sites where the peptide H-QYLYHYCVVD-OH	–	–	–	–
H-QYLYHYCVVD-OH [H-QYLYHYCVVD-OH]	more dye was extracted	more blue dye has accumulated	greatly reduced	greatly reduced	adhesion is decreased between the cells	do not form cobblestone-like monolayers
